Consider 53 molecules from the Kinase Knowledgebase extract (Sharma et al. 2016).

Structures are written as SMILES.

In this test the target is EGFR (UniProt P00533).
EGFR, sequence (P00533 whole entry, looked up): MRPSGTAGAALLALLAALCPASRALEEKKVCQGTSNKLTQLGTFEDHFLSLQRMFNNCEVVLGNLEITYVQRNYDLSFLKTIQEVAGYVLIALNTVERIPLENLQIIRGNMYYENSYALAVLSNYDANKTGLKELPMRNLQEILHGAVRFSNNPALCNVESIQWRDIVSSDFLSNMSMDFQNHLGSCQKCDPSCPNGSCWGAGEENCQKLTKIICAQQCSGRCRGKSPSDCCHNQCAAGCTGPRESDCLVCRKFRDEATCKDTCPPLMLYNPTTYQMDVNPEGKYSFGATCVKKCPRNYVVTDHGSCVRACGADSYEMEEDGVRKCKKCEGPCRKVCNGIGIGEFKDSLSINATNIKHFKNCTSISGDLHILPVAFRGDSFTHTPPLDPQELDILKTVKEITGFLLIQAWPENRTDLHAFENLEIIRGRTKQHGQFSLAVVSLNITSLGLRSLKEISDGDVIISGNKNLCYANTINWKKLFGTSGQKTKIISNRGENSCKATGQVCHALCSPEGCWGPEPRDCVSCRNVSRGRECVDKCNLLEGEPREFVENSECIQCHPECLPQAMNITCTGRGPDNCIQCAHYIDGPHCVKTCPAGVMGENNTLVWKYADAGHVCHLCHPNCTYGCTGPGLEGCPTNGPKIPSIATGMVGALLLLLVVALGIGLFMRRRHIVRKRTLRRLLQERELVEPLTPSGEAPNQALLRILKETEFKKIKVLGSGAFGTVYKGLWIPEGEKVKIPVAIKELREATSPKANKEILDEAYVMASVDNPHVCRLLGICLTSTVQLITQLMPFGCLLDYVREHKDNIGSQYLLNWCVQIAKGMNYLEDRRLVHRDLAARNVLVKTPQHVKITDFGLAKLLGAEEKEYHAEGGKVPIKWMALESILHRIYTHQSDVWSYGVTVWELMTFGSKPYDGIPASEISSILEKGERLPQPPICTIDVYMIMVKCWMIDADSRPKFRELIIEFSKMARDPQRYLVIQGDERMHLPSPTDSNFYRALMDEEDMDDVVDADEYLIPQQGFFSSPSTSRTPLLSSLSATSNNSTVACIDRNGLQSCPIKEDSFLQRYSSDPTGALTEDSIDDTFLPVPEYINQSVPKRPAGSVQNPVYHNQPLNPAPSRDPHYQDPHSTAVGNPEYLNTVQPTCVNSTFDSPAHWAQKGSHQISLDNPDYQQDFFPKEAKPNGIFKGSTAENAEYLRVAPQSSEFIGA
In the case of `CS(=O)(=O)N1CCC(Nc2ccc3c(c2)/C(=C(\c2cccc(F)c2)c2ncc[nH]2)C(=O)N3)CC1`, the IC50 was > 5000 nM.

`CCN1CCC(Nc2ccc3c(c2)/C(=C(\c2ccc(F)cc2)c2ncc[nH]2)C(=O)N3)CC1` displayed an IC50 of 500 to 5000 nM. To `COCCN1CCC(Nc2ccc3c(c2)/C(=C(\c2cccc(F)c2)c2nc4ccccc4[nH]2)C(=O)N3)CC1` belongs 50 to 500 nM. The value for `CCN1CCC(Nc2ccc3c(c2)/C(=C(\c2ccc(Cl)cc2)c2nc4ccccc4[nH]2)C(=O)N3)CC1` was 50 to 500 nM; that for `CCN1CCC(Nc2ccc3c(c2)/C(=C(\c2ccc(C)c(F)c2)c2nc4ccccc4[nH]2)C(=O)N3)CC1` was < 50 nM.

The molecule `COCCN1CCC(Oc2ccc3c(c2)/C(=C(\c2cccc(Cl)c2)c2nc4ccccc4[nH]2)C(=O)N3)CC1` returned a half-maximal inhibitory concentration (IC50) of 50 to 500 nM. `CCN1CCCC(Nc2ccc3c(c2)/C(=C(\c2ccccc2)c2nc4cc(OC)ccc4[nH]2)C(=O)N3)C1` (stereo not drawn) showed a 50% inhibitory concentration (IC50) of 500 to 5000 nM. For the molecule `CCN1CCC(Nc2ccc3c(c2)/C(=C(\c2ccc(OC)cc2)c2ncc[nH]2)C(=O)N3)CC1`, the half-inhibitory concentration (IC50) was in the range of 500 to 5000 nM. For the molecule `CCN1CCC(Nc2ccc3c(c2)/C(=C(\c2ccc(OC)cc2)c2nc4cc(OC)ccc4[nH]2)C(=O)N3)CC1`, the 50% inhibitory concentration (IC50) lay in the range of 500 to 5000 nM. The value for `CCN1CCC(Nc2ccc3c(c2)/C(=C(\c2cc(F)cc(F)c2)c2nc4cc(F)ccc4[nH]2)C(=O)N3)CC1` was 50 to 500 nM. To `COc1ccc2[nH]c(/C(=C3\C(=O)Nc4ccc(NC5CC(C)(C)NC(C)(C)C5)cc43)c3ccccc3)nc2c1` belongs 500 to 5000 nM; to `O=C1Nc2ccc(NC3CCNCC3)cc2/C1=C(\c1ccccc1)c1nc2ccccc2[nH]1`, 500 to 5000 nM; to `CCN1CCC(Nc2ccc3c(c2)/C(=C(\c2ccc(C)cc2)c2ncc[nH]2)C(=O)N3)CC1`, 50 to 500 nM. Take `COCCN1CCC(Nc2ccc3c(c2)/C(=C(\c2cccc(F)c2)c2ncc[nH]2)C(=O)N3)CC1`: the half-inhibitory concentration (IC50) lay in the range of 50 to 500 nM.

As to `CCCc1ccc(/C(=C2/C(=O)Nc3ccc(NC4CCN(CCOC)CC4)cc32)c2ncc[nH]2)cc1`, the IC50 lay in the range of 50 to 500 nM. For the molecule `CCN1CCC(Oc2ccc3c(c2)/C(=C(\c2cccc(OC)c2)c2nc4ccccc4[nH]2)C(=O)N3)CC1`, the IC50 was in the range of 500 to 5000 nM. The value for `CCN1CCC(Nc2ccc3c(c2)/C(=C(\c2ccc(F)c(F)c2)c2nc(C)c[nH]2)C(=O)N3)CC1` was < 50 nM; that for `COCCN1CCC(Oc2ccc3c(c2)/C(=C(\c2cc(F)cc(F)c2)c2nc4ccccc4[nH]2)C(=O)N3)CC1` was 500 to 5000 nM. The value for `O=C1Nc2ccc(NC3CCN(CCN4CCCCC4)CC3)cc2/C1=C(\c1cccc(F)c1)c1ncc[nH]1` was > 5000 nM. The value for `CCN1CCC(Nc2ccc3c(c2)/C(=C(/c2nc(C)c[nH]2)c2ccc(C(F)(F)F)cc2F)C(=O)N3)CC1` was 50 to 500 nM. For `CCN1CCC(Oc2ccc3c(c2)/C(=C(\c2ccccc2)c2nc4cc(OC)ccc4[nH]2)C(=O)N3)CC1`, the IC50 lay in the range of 500 to 5000 nM. The value for `COCCN1CCC(Nc2ccc3c(c2)/C(=C(\c2cccc(Cl)c2)c2ncc[nH]2)C(=O)N3)CC1` was 500 to 5000 nM.

In turn, `COCCN1CCC(Nc2ccc3c(c2)/C(=C(\c2cccc(OC)c2)c2nc4ccccc4[nH]2)C(=O)N3)CC1` registered an IC50 of 500 to 5000 nM. `CCN1CCC(Oc2ccc3c(c2)/C(=C(\c2cc(F)cc(F)c2)c2nc4ccccc4[nH]2)C(=O)N3)CC1`: the IC50 was in the range of 500 to 5000 nM.

`COCCN1CCC(Nc2ccc3c(c2)/C(=C(\c2ccc(F)c(Cl)c2)c2ncc[nH]2)C(=O)N3)CC1`: the 50% inhibitory concentration (IC50) was > 5000 nM. In the case of `COc1ccc2[nH]c(/C(=C3\C(=O)Nc4ccc(NC5CCN(Cc6ccccc6)C5)cc43)c3ccccc3)nc2c1` (stereo not drawn), the IC50 is 500 to 5000 nM. The value for `COCCN1CCC(Nc2ccc3c(c2)/C(=C(\c2ccc(C)cc2)c2ncc[nH]2)C(=O)N3)CC1` was 50 to 500 nM; that for `CN(C)CCN1CCC(Nc2ccc3c(c2)/C(=C(\c2ccccc2)c2nc4ccccc4[nH]2)C(=O)N3)CC1` was 500 to 5000 nM; that for `CCN1CCC(Nc2ccc3c(c2)/C(=C(/c2nc(C)c[nH]2)c2cccc(F)c2F)C(=O)N3)CC1` was 50 to 500 nM. In turn, `CCN1CCC(Oc2ccc3c(c2)/C(=C(\c2cccc(Cl)c2)c2nc4ccccc4[nH]2)C(=O)N3)CC1` showed an IC50 of 500 to 5000 nM. To `CCN1CCC(Nc2ccc3c(c2)/C(=C(/c2ncc[nH]2)c2cc(F)c(Cl)cc2Cl)C(=O)N3)CC1` belongs 50 to 500 nM; to `CCN(CC)CCN1CCC(Nc2ccc3c(c2)/C(=C(\c2cccc(F)c2)c2ncc[nH]2)C(=O)N3)CC1`, > 5000 nM. The value for `COCCN1CCC(Nc2ccc3c(c2)/C(=C(\c2ccccc2)c2nc4ccccc4[nH]2)C(=O)N3)CC1` was 50 to 500 nM. For the molecule `COCCN1CCC(Nc2ccc3c(c2)/C(=C(\c2ccc(F)cc2)c2ncc[nH]2)C(=O)N3)CC1`, the IC50 is > 5000 nM. `CCN1CCC(Nc2ccc3c(c2)/C(=C(\c2ccc(C)cc2)c2nc4cc(OC)ccc4[nH]2)C(=O)N3)CC1` yielded an IC50 of 500 to 5000 nM. `COCCN1CCC(Nc2ccc3c(c2)/C(=C(\c2cc(F)cc(F)c2)c2nc4ccccc4[nH]2)C(=O)N3)CC1` returned an IC50 of 50 to 500 nM. The value for `CCN1CCC(Nc2ccc3c(c2)/C(=C(\c2cccc(C#N)c2)c2nc4ccccc4[nH]2)C(=O)N3)CC1` was 500 to 5000 nM; that for `CCN1CCC(Nc2ccc3c(c2)/C(=C(\c2ccc(C(F)(F)F)c(F)c2)c2ncc[nH]2)C(=O)N3)CC1` was 50 to 500 nM; that for `Cc1ccc(/C(=C2/C(=O)Nc3ccc(NC4CCN(C)CC4)cc32)c2ncc[nH]2)cc1` was 50 to 500 nM. Take `CCN1CCC(Nc2ccc3c(c2)/C(=C(\c2cccc(Cl)c2)c2nc4ccccc4[nH]2)C(=O)N3)CC1`: the IC50 lay in the range of 50 to 500 nM. To `CCN1CCC(Nc2ccc3c(c2)/C(=C(\c2ccc(F)c(F)c2)c2ncc[nH]2)C(=O)N3)CC1` belongs 500 to 5000 nM. Molecule `CCCc1ccc(/C(=C2/C(=O)Nc3ccc(NC4CCN(CC)CC4)cc32)c2ncc[nH]2)cc1` showed an IC50 of 50 to 500 nM.

`CCN1CCC(Nc2ccc3c(c2)/C(=C(\c2cccc(N)c2)c2nc4ccccc4[nH]2)C(=O)N3)CC1` came in with an IC50 of 500 to 5000 nM. The molecule `CCN1CCC(Nc2ccc3c(c2)/C(=C(\c2ccc(C)cc2)c2nc(C)c[nH]2)C(=O)N3)CC1` displayed an IC50 of 50 to 500 nM. On to `CCN1CCC(Nc2ccc3c(c2)/C(=C(\c2ccc(Cl)cc2)c2nc(C)c[nH]2)C(=O)N3)CC1`, for which the 50% inhibitory concentration (IC50) was in the range of 50 to 500 nM. The value for `COCCN1CCC(Nc2ccc3c(c2)/C(=C(\c2ccc(C(F)(F)F)nc2)c2ncc[nH]2)C(=O)N3)CC1` was > 5000 nM; that for `CCN1CCC(Nc2ccc3c(c2)/C(=C(/c2ncc[nH]2)c2ccccc2F)C(=O)N3)CC1` was 50 to 500 nM. To `COCCN1CCC(Nc2ccc3c(c2)/C(=C(\c2ccc(F)c(F)c2)c2ncc[nH]2)C(=O)N3)CC1` belongs > 5000 nM; to `COCCN1CCC(Nc2ccc3c(c2)/C(=C(\c2ccc(F)cc2)c2nc4ccccc4[nH]2)C(=O)N3)CC1`, 500 to 5000 nM. The value for `CCN1CCC(Oc2ccc3c(c2)/C(=C(\c2cccc(Cl)c2)c2ncc[nH]2)C(=O)N3)CC1` was 500 to 5000 nM; that for `CCN1CCC(Nc2ccc3c(c2)/C(=C(\c2cccc(Cl)c2)c2ncc[nH]2)C(=O)N3)CC1` was 50 to 500 nM. For the molecule `COCCN1CCC(Nc2ccc3c(c2)/C(=C(\c2cccc(F)c2)c2nc(-c4ccccc4)c[nH]2)C(=O)N3)CC1`, the IC50 fell in the range of 50 to 500 nM. To `CCN1CCC(Nc2ccc3c(c2)/C(=C(/c2nc(C)c[nH]2)c2ccc(F)cc2F)C(=O)N3)CC1` belongs 50 to 500 nM.
